Experimental data as given in ChEMBL document CHEMBL1124898, “Novel agents effective against solid tumors: the diarylsulfonylureas. Synthesis, activities, and analysis of quantitative structure-activity relationships” (J Med Chem, 1990).
Values after ≈ are worked out from the molar mass of the structure shown.

Columns and labels:
CCRF-CEM = assay: Concentration required to inhibit growth of CCRF-CEM cells in culture for 72 hr to 50% of control growth; assay type: functional, cell-based; settings: Homo sapiens
[1] = Antitumor activity in vivo against the 6C3HED lymphosarcoma, dosed for 8 days at 300 mg/kg; settings: Mus musculus, 192 h

| Structure (SMILES) | IC50 (CCRF-CEM) [mg/L] | inhibition in vivo at 300 mg/kg [1] [%] |
| --- | --- | --- |
| Cc1ccc(S(=O)(=O)NC(=O)Nc2ncccn2)cc1 | > 20 | 0 |
| Cc1ccc(S(=O)(=O)NC(=O)Nc2ccc3c(c2)CCC3)cc1 | 15.7 (≈ 47.5 µM) | 5 |
| COc1cc(Cl)c(Cl)cc1NC(=O)NS(=O)(=O)c1ccc(C)cc1 | > 20 | 3 |
| CC(C)c1ccc(S(=O)(=O)NC(=O)Nc2ccc(Cl)cc2)cc1 | 8.7 (≈ 24.7 µM) | 65 |
| O=C(Nc1ccc(Cl)cc1)NS(=O)(=O)c1cccc2ccccc12 | 15.2 (≈ 42.1 µM) | 29 |
| COc1cccc(S(=O)(=O)NC(=O)Nc2ccc(Cl)cc2)c1 | 8 (≈ 23.5 µM) | 100 |
| O=C(Nc1ccc(Cl)cc1)NS(=O)(=O)c1ccc([N+](=O)[O-])cc1 | 12.1 (≈ 34 µM) | 70 |
| COc1ccc(NC(=O)NS(=O)(=O)c2ccc(C)cc2)cc1 | > 20 | 6 |
| Cc1ccc(S(=O)(=O)NC(=O)Nc2c(F)cc(F)cc2F)cc1 | > 20 | 27 |
| Cc1ccc(S(=O)(=O)NC(=O)Nc2ccc3c(c2)OCO3)cc1 | > 20 | 54 |
| Nc1ccc(S(=O)(=O)NC(=O)Nc2ccc(Cl)cc2)cc1 | 13.9 (≈ 42.7 µM) | 43 |
| CCOc1ccc(S(=O)(=O)NC(=O)Nc2ccc(Cl)cc2)cc1 | 13 (≈ 36.6 µM) | 100 |
| O=C(Nc1ccc2c(c1)OCO2)NS(=O)(=O)c1ccc(Cl)cc1 | > 20 | 28 |
| O=C(NCCc1ccccc1)NS(=O)(=O)c1ccc2c(c1)CCC2 | > 20 | 0 |
| Cc1ccc(S(=O)(=O)NC(=O)Nc2c(F)c(F)cc(F)c2F)cc1 | > 20 | 0 |
| Cc1ccc(S(=O)(=O)NC(=O)NCc2ccccc2)cc1 | > 20 | 0 |
| Cc1ccc(S(=O)(=O)NC(=O)NCc2ccc(Cl)cc2)cc1 | > 20 | 14 |
| Cc1ccc(S(=O)(=O)NC(=O)Nc2ccc(N(C)C)cc2)cc1 | > 20 | 51 |
| Cc1ccc(S(=O)(=O)NC(=O)Nc2cccc(Cl)c2Cl)cc1 | > 20 | 37 |
| O=C(Nc1ccc(Br)cc1)NS(=O)(=O)c1ccc2c(c1)CCC2 | 17.6 (≈ 44.5 µM) | 92 |
| CCc1cccc(S(=O)(=O)NC(=O)Nc2ccc(Cl)cc2)c1 | 10.4 (≈ 30.7 µM) | 95 |

| Structure (SMILES) | IC50 (CCRF-CEM) [mg/L] | inhibition in vivo at 300 mg/kg [1] [%] |
| --- | --- | --- |
| Cc1ccc(S(=O)(=O)NC(=O)Nc2cc(F)cc(F)c2)cc1 | > 20 | 52 |
| CCc1cccc(NC(=O)NS(=O)(=O)c2ccc(C)cc2)c1 | > 20 | 0 |
| COc1ccc(S(=O)(=O)NC(=O)Nc2ccc(Cl)cc2)cc1OC | > 20 | 43 |
| CCCCCCCCc1ccc(S(=O)(=O)NC(=O)Nc2ccc(Cl)cc2)cc1 | 9 (≈ 21.3 µM) | 9 |
| CC(=O)Nc1ccc(S(=O)(=O)NC(=O)Nc2ccc(C(F)(F)F)cc2)cc1 | > 20 | 22 |
| O=C(Nc1ccc(F)cc1)NS(=O)(=O)c1ccc(Cl)cc1 | 14.5 (≈ 44.1 µM) | 74 |
| Cc1ccc(S(=O)(=O)NC(=O)Nc2ccncc2)cc1 | > 20 | 24 |
| O=C(Nc1ccc(Cl)cc1)NS(=O)(=O)c1ccc2c(c1)OCO2 | 9.1 (≈ 25.7 µM) | 100 |
| CCCc1ccc(S(=O)(=O)NC(=O)Nc2ccc(Cl)cc2)cc1 | 13.8 (≈ 39.1 µM) | 79 |
| O=C(Nc1ccc(Cl)cc1)NS(=O)(=O)c1ccc(CO)cc1 | > 20 | 15 |
| CCCOc1cccc(NC(=O)NS(=O)(=O)c2ccc(C)cc2)c1 | > 20 | 0 |
| Cc1ccc(S(=O)(=O)NC(=O)Nc2ccc(-c3ccccc3)cc2)cc1 | > 20 | 0 |
| Cc1ccc(S(=O)(=O)NC(=O)Nc2ccccc2C)cc1 | > 20 | 32 |
| Cc1ccc(S(=O)(=O)NC(=O)Nc2cccc(Cl)c2)cc1 | > 20 | 13 |
| Cc1ccc(S(=O)(=O)NC(=O)Oc2ccc(Cl)cc2)cc1 | > 20 | 43 |
| Cc1ccc(S(=O)(=O)NC(=O)Nc2ccc(OCc3ccccc3)cc2)cc1 | > 20 | 0 |
| COC(=O)c1ccc(S(=O)(=O)NC(=O)Nc2ccc(Cl)cc2)cc1 | 17.4 (≈ 47.2 µM) | 49 |
| Cc1ccc(S(=O)(=O)NC(=O)Nc2ccc(S(N)(=O)=O)cc2)cc1 |  | 27 |
| Cc1ccc(S(=O)(=O)NC(=O)Nc2cc(C)cc(C)c2)cc1 | > 20 | 9 |
| Cc1ccc(S(=O)(=O)NC(=O)Nc2cccc(C)c2C)cc1 |  | 8 |
| Cc1ccc(S(=O)(=O)NC(=O)Nc2nc[nH]n2)cc1 | > 20 | 0 |

| Structure (SMILES) | IC50 (CCRF-CEM) [mg/L] | inhibition in vivo at 300 mg/kg [1] [%] |
| --- | --- | --- |
| Cc1ccc(S(=O)(=O)NC(=O)NC2CCC(C)CC2)cc1 (configuration not stated) | > 20 | 2 |
| Cc1ccc(S(=O)(=O)NC(=O)NCCc2ccccc2)cc1 | > 20 | 24 |
| Cc1ccc(S(=O)(=O)NC(=O)Nc2ccc(S(C)(=O)=O)cc2)cc1 | > 20 | 7 |
| O=C(Nc1ccc(Cl)c(Cl)c1)NS(=O)(=O)c1ccc2c(c1)CCC2 | 9.1 (≈ 23.6 µM) | 97 |
| Cc1ccc(S(=O)(=O)NC(=O)Nc2ccc(OC(F)F)cc2)cc1 |  | 15 |
| Cc1ccc(S(=O)(=O)NC(=O)Nc2cccc(C)c2)cc1 | > 20 | 0 |
| Cc1ccc(S(=O)(=O)NC(=O)Nc2ccc(Cl)cc2)cc1C | 13.6 (≈ 40.1 µM) | 100 |
| O=C(Nc1ccc(Cl)cc1)NS(=O)(=O)c1ccc2c(c1)OCCO2 | 13.5 (≈ 36.6 µM) | 49 |
| CSc1cccc(NC(=O)NS(=O)(=O)c2ccc(C)cc2)c1 | > 20 | 20 |
| Cc1ccc(S(=O)(=O)NC(=O)N(C)c2ccc(Cl)cc2)cc1 | > 20 | 30 |
| Cc1ccc(S(=O)(=O)NC(=O)Nc2ccc(Br)c(C)c2)cc1 | 7.3 (≈ 19 µM) | 81 |
| Cc1ccc(S(=O)(=O)NC(=O)NC2CCC(O)CC2)cc1 (configuration not stated) | > 20 | 0 |
| Cc1ccc(S(=O)(=O)NC(=O)Nc2cccnc2)cc1 | > 20 | 1 |
| CCc1ccc(S(=O)(=O)NC(=O)Nc2ccc(Cl)cc2)cc1CC | 12.4 (≈ 33.8 µM) | 46 |
| Cc1ccc(S(=O)(=O)NC(=O)Nc2ccc(OC(F)(F)F)cc2)cc1 | 18.4 (≈ 49.2 µM) | 17 |
| Cc1ccc(S(=O)(=O)NC(=O)Nc2ccc3[nH]ncc3c2)cc1 | > 20 | 0 |
| Cc1ccc(S(=O)(=O)NC(=O)Nc2ccc3c(c2)C(=O)CC3)cc1 | > 20 | 0 |
| Cc1ccc(S(=O)(=O)NC(=O)Nc2ccc(C#N)cc2)cc1 | > 20 | 31 |
| COc1ccc(NC(=O)NS(=O)(=O)c2ccc(C)cc2)cc1Cl | > 20 | 0 |
| Cc1ccc(S(=O)(=O)NC(=O)Nc2cc(Cl)cc(Cl)c2)cc1 | > 20 | 21 |
| O=C(Nc1ccc(Cl)cc1)NS(=O)(=O)c1ccc(Oc2ccccc2)cc1 | 19.7 (≈ 48.9 µM) | 32 |

| Structure (SMILES) | IC50 (CCRF-CEM) [mg/L] | inhibition in vivo at 300 mg/kg [1] [%] |
| --- | --- | --- |
| Cc1ccc(S(=O)(=O)N(C)C(=O)Nc2ccc(Cl)cc2)cc1 | > 20 | 17 |
| O=C(Nc1ccc(F)cc1)NS(=O)(=O)c1ccc2c(c1)CCC2 | > 20 | 39 |
| N#Cc1cccc(S(=O)(=O)NC(=O)Nc2ccc(Cl)cc2)c1 | 13.1 (≈ 39 µM) | 19 |
| Cc1ccc(S(=O)(=O)NC(=O)Nc2ccc(Cl)cc2C(F)(F)F)cc1 | > 20 | 24 |
| CCOc1cccc(NC(=O)NS(=O)(=O)c2ccc(C)cc2)c1 | > 20 | 6 |
| Cc1ccc(S(=O)(=O)NC(=O)Nc2ccc(O)cc2)cc1 | > 20 | 10 |
| Cc1ccc(NC(=O)NS(=O)(=O)c2ccc(C)cc2)cc1 | 11.6 (≈ 38.1 µM) | 91 |
| CCCCc1ccc(NC(=O)NS(=O)(=O)c2ccc(C)cc2)cc1 | 19.7 (≈ 56.9 µM) | 8 |
| O=C(Nc1ccc(C(F)(F)F)cc1)NS(=O)(=O)c1ccc2c(c1)CCC2 | 12 (≈ 31.2 µM) | 71 |
| Cc1ccc(S(=O)(=O)NC(=O)Nc2ccc(OCC(F)(F)F)cc2)cc1 | > 20 | 30 |
| Cc1ccc(S(=O)(=O)NC(=O)Nc2cc(C(C)(C)C)on2)cc1 |  | 5 |
| Cc1ccc(S(=O)(=O)NC(=O)Nc2ccc(Cl)c(C(F)(F)F)c2)cc1 | 18.6 (≈ 47.4 µM) | 18 |
| Cc1ccc(S(=O)(=O)NC(=O)Nc2ccc(Cl)cn2)cc1 | > 20 | 43 |
| CCOC(=O)c1ccc(NC(=O)NS(=O)(=O)c2ccc(C)cc2)cc1 | > 20 | 12 |
| CSc1ccc(NC(=O)NS(=O)(=O)c2ccc(C)cc2)cc1 | > 20 | 17 |
| Cc1ccc(S(=O)(=O)NC(=O)Nc2ccc(Cl)c(C)c2)cc1 | 7.3 (≈ 21.5 µM) | 85 |
| Cc1ccc(S(=O)(=O)NC(=O)Nc2nc(Cl)cc(Cl)n2)cc1 | > 20 | 0 |
| O=C(NCCc1ccccc1)NS(=O)(=O)c1ccc2ccccc2c1 | > 20 | 0 |
| Cc1ccc(S(=O)(=O)NC(=O)Nc2nncs2)cc1 | > 20 | 16 |
| Cc1ccc(S(=O)(=O)NC(=O)Nc2cnccn2)cc1 | > 20 | 0 |
